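Cultured in 96-well plates, cells were exposed to test compound for 48 hours across five concentrations. GI50: concentration for 50% inhibition of growth.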 The source made the active and inactive calls. Rule as the data show it: active = GI50 up to about 1.1 µM and inactive = higher.
Experiments:
Assay in all cases: NCI tumour cell line growth inhibition, 48 h
NCI-H460 = test system: NCI-H460
NCI-H23 = test system: NCI-H23
A549 = test system: A549
MDA-MB-435 = test system: MDA-MB-435
SK-OV-3 = test system: SK-OV-3
U-251 = test system: U-251
HT-29 = test system: HT-29
CCRF-CEM = test system: CCRF-CEM
PC-3 = test system: PC-3
OVCAR-8 = test system: OVCAR-8
KM12 = test system: KM12
UO-31 = test system: UO-31
SK-MEL-28 = test system: SK-MEL-28
UACC-257 = test system: UACC-257
HCC 2998 = test system: HCC 2998
SN12C = test system: SN12C
HCT-116 = test system: HCT-116
HL-60 = test system: HL-60
BT-549 = test system: BT-549
RXF 393 = test system: RXF 393

Measured: GI50

C=C1CCC2CC1C(C(=O)c1c[nH]c3ccccc13)=NC2(C)C (stereo unspecified)
inactive: NCI-H460 > 100 µM | NCI-H23 > 100 µM | A549 > 100 µM | MDA-MB-435 > 100 µM | SK-OV-3 > 100 µM | U-251 > 100 µM | HT-29 > 100 µM | CCRF-CEM > 100 µM | PC-3 > 100 µM | OVCAR-8 > 100 µM | KM12 > 100 µM | UO-31 > 100 µM | SK-MEL-28 > 100 µM | UACC-257 > 100 µM | HCC 2998 > 100 µM | SN12C > 100 µM | HCT-116 > 100 µM | HL-60 > 100 µM | BT-549 > 100 µM

N#Cc1c(Cl)c(C=O)c(=O)n2c1[nH]c1ccccc12
inactive: NCI-H460 > 100 µM | NCI-H23 42.1 µM | A549 > 100 µM | MDA-MB-435 33.7 µM | SK-OV-3 > 100 µM | U-251 67 µM | HT-29 36 µM | CCRF-CEM 40.4 µM | PC-3 55.1 µM | OVCAR-8 42.1 µM | KM12 47.3 µM | UO-31 46.2 µM | SK-MEL-28 63.1 µM | UACC-257 56.8 µM | HCC 2998 > 100 µM | SN12C 61.8 µM | HCT-116 29.8 µM | HL-60 42.6 µM | BT-549 36.1 µM

CCOC(=O)C(NC(=O)C(CCCCNP(=O)(OCC)OCC)NC(=O)C(C)NC(C)=O)C(C)C (stereo unspecified)
inactive: NCI-H460 > 100 µM | NCI-H23 > 100 µM | A549 > 100 µM | MDA-MB-435 > 100 µM | U-251 > 100 µM | HT-29 > 100 µM | CCRF-CEM > 100 µM | PC-3 > 100 µM | OVCAR-8 > 100 µM | KM12 > 100 µM | UO-31 > 100 µM | SK-MEL-28 > 100 µM | UACC-257 > 100 µM | HCC 2998 > 100 µM | RXF 393 > 100 µM | SN12C > 100 µM | HCT-116 > 100 µM | HL-60 > 100 µM | BT-549 > 100 µM

COc1cc2c(cc1O)CC[n+]1cc3c(OC)c(OC)ccc3cc1-2
inactive: NCI-H460 > 100 µM | NCI-H23 62.5 µM | A549 > 100 µM | MDA-MB-435 > 100 µM | SK-OV-3 > 100 µM | U-251 35.6 µM | HT-29 > 100 µM | CCRF-CEM > 100 µM | PC-3 > 100 µM | OVCAR-8 > 100 µM | KM12 76.7 µM | UO-31 > 100 µM | SK-MEL-28 > 100 µM | UACC-257 90.4 µM | HCC 2998 > 100 µM | SN12C > 100 µM | HCT-116 > 100 µM | HL-60 > 100 µM | BT-549 47.3 µM

CCC1c2[nH]c3ccccc3c2C[C@H]2C(=O)NC(Cc3c[nH]c4ccccc34)C(=O)N12 (stereo partly specified)
inactive: NCI-H23 25.5 µM | A549 28 µM | MDA-MB-435 19.7 µM | SK-OV-3 34 µM | U-251 17.5 µM | HT-29 24.2 µM | PC-3 18.7 µM | OVCAR-8 32.7 µM | KM12 18.9 µM | UO-31 27.7 µM | SK-MEL-28 33.9 µM | UACC-257 19.4 µM | RXF 393 17.4 µM | SN12C 22.5 µM | HCT-116 18 µM | HL-60 19.2 µM | BT-549 22.6 µM

Cc1ccc(C)c(NC(=O)NCc2ccc(Cl)cc2)c1
inactive: NCI-H460 > 85.3 µM | NCI-H23 35.7 µM | A549 > 100 µM | MDA-MB-435 > 100 µM | SK-OV-3 13.8 µM | U-251 17.7 µM | HT-29 > 100 µM | CCRF-CEM 8.51 µM | PC-3 > 100 µM | OVCAR-8 34.9 µM | KM12 87.3 µM | UO-31 31 µM | SK-MEL-28 97.5 µM | UACC-257 39.7 µM | RXF 393 8.89 µM | SN12C 36.3 µM | HCT-116 35.3 µM | HL-60 > 100 µM | BT-549 > 100 µM

NCCCC(N)C(=O)O (stereo unspecified)
inactive: NCI-H460 > 100 µM | NCI-H23 > 100 µM | A549 > 100 µM | MDA-MB-435 > 100 µM | SK-OV-3 > 100 µM | U-251 > 100 µM | HT-29 > 100 µM | CCRF-CEM > 100 µM | PC-3 > 100 µM | OVCAR-8 > 100 µM | KM12 > 100 µM | UO-31 > 100 µM | SK-MEL-28 > 100 µM | UACC-257 > 100 µM | RXF 393 > 100 µM | SN12C > 100 µM | HCT-116 > 100 µM | HL-60 > 100 µM | BT-549 > 100 µM

COC(=O)Nc1nc2cc(NS(=O)(=O)c3cccs3)ccc2[nH]1
inactive: NCI-H460 32.2 µM | NCI-H23 30.5 µM | A549 43.9 µM | MDA-MB-435 3.62 µM | SK-OV-3 28.4 µM | U-251 30.4 µM | HT-29 23 µM | CCRF-CEM 34.8 µM | PC-3 33.9 µM | OVCAR-8 36.4 µM | KM12 13.7 µM | UO-31 30.1 µM | SK-MEL-28 19.3 µM | RXF 393 19.3 µM | SN12C 39.1 µM | HCT-116 18.4 µM | HL-60 23 µM | BT-549 71.8 µM

O=C(O)CN1CCN(CC(=O)N2CCN(C(=O)OCc3ccccc3)CC2)CCN(CC(=O)O)CCN(CC(=O)N2CCN(C(=O)OCc3ccccc3)CC2)CC1
inactive: NCI-H460 > 100 µM | A549 > 100 µM | MDA-MB-435 > 100 µM | SK-OV-3 > 100 µM | U-251 > 100 µM | HT-29 > 100 µM | CCRF-CEM > 100 µM | PC-3 > 100 µM | OVCAR-8 > 100 µM | KM12 > 100 µM | UO-31 > 100 µM | SK-MEL-28 > 100 µM | UACC-257 > 100 µM | HCC 2998 > 100 µM | SN12C > 100 µM | HCT-116 > 100 µM | HL-60 > 100 µM | BT-549 > 100 µM

Cc1ccc([S+]([O-])CC(CF)OCn2cc(C)c(=O)[nH]c2=O)cc1 (stereo unspecified)
inactive: NCI-H460 > 100 µM | NCI-H23 > 100 µM | A549 > 100 µM | MDA-MB-435 > 100 µM | SK-OV-3 > 100 µM | U-251 > 100 µM | PC-3 > 100 µM | OVCAR-8 > 100 µM | KM12 > 100 µM | UO-31 > 100 µM | SK-MEL-28 > 100 µM | HCC 2998 > 100 µM | SN12C > 100 µM | HCT-116 > 100 µM | HL-60 > 100 µM | BT-549 90.2 µM

Cc1cc2c(cc1C(=O)c1ccc(N)cc1)OCO2
inactive: NCI-H460 33.7 µM | NCI-H23 > 100 µM | A549 39.6 µM | MDA-MB-435 7.82 µM | SK-OV-3 24.5 µM | U-251 24.9 µM | HT-29 22.9 µM | CCRF-CEM 39.1 µM | PC-3 43.6 µM | OVCAR-8 > 100 µM | KM12 21.4 µM | UO-31 77.8 µM | UACC-257 > 100 µM | SN12C 49.5 µM | HCT-116 52 µM | HL-60 49.9 µM | BT-549 48.8 µM

Oc1ccc(Cc2cc(Cc3ccc(O)cc3)cc(Cc3ccc(O)cc3)c2)cc1
inactive: NCI-H460 > 50 µM | A549 > 50 µM | MDA-MB-435 > 50 µM | SK-OV-3 > 50 µM | U-251 > 50 µM | HT-29 > 50 µM | PC-3 > 50 µM | OVCAR-8 > 50 µM | KM12 > 50 µM | UO-31 > 50 µM | SK-MEL-28 > 50 µM | UACC-257 > 50 µM | HCC 2998 > 50 µM | SN12C > 50 µM | HCT-116 > 50 µM | HL-60 > 50 µM | BT-549 > 50 µM

Cn1c(C(C)(C)OC(=O)Oc2ccccc2)cnc1[N+](=O)[O-]
inactive: NCI-H460 80.9 µM | NCI-H23 > 100 µM | A549 > 100 µM | MDA-MB-435 > 100 µM | SK-OV-3 > 100 µM | U-251 > 100 µM | HT-29 34 µM | PC-3 > 100 µM | OVCAR-8 70.6 µM | KM12 58.6 µM | UO-31 > 100 µM | SK-MEL-28 > 100 µM | UACC-257 36 µM | RXF 393 > 100 µM | SN12C 19.7 µM | HCT-116 92.5 µM | HL-60 36.5 µM | BT-549 > 100 µM

CC(=O)OC(C#N)CC(C)(C)/[N+]([O-])=[N+](\[O-])C(C)(C)CC(C#N)OC(C)=O (stereo unspecified)
inactive: NCI-H460 18 µM | NCI-H23 17 µM | A549 30.1 µM | MDA-MB-435 16.1 µM | SK-OV-3 > 100 µM | U-251 15.8 µM | HT-29 18.4 µM | CCRF-CEM 1.73 µM | PC-3 15.3 µM | OVCAR-8 16.1 µM | KM12 14.5 µM | UO-31 19.5 µM | SK-MEL-28 26 µM | UACC-257 16.9 µM | HCC 2998 16.1 µM | RXF 393 12.8 µM | SN12C 12.9 µM | HCT-116 6.7 µM | BT-549 14.8 µM

COc1ccc(-n2c(C)nc3ccc(NC(=S)Nc4ccccc4)cc3c2=O)cc1
inactive: NCI-H460 12.4 µM | NCI-H23 52.7 µM | MDA-MB-435 61.5 µM | U-251 > 100 µM | HT-29 62.4 µM | PC-3 35.7 µM | OVCAR-8 > 100 µM | KM12 72.3 µM | UO-31 > 100 µM | SK-MEL-28 96.2 µM | UACC-257 51.8 µM | HCC 2998 26.2 µM | RXF 393 57.1 µM | SN12C > 100 µM | HCT-116 39.2 µM | HL-60 53.3 µM | BT-549 70 µM
